Data reported in PubChem BioAssay (NCI).
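Briefly, cells in 96-well plates were exposed to five compound concentrations for 48 h, and endpoints were estimated by linear interpolation. At the GI50, growth is halved. At the TGI there is no net growth.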

Experiments:
Assay in all cases: NCI anticancer screen, dose series, 48 h
[1] = tested on: SNB-78 CNS
[2] = tested on: HOP-18 NSCLC
[3] = tested on: KM20L2 colon
[4] = tested on: DMS 114 small cell lung
[5] = tested on: XF 498 CNS
[6] = tested on: LXFL 529 NSCLC
[7] = tested on: RXF-631 renal
[8] = tested on: DMS 273 small cell lung
[9] = tested on: MDA-N

Compound | TGI [1] [µM] | TGI [2] [µM] | TGI [3] [µM] | TGI [4] [µM] | TGI [5] [µM] | TGI [6] [µM] | TGI [7] [µM] | TGI [8] [µM] | TGI [9] [µM] | GI50 [1] [µM] | GI50 [6] [µM] | GI50 [2] [µM] | GI50 [3] [µM] | GI50 [8] [µM] | GI50 [9] [µM]
CC1CCC2(NC1)OC1CC3[C@@H]4CC=C5C=CCC[C@]5(C)C4CC[C@]3(C)C1C2C (stereo not given in full) | > 100 | > 100 | 33.8 | 46.8 | 33 |  |  |  |  |  |  |  |  |  | 
CC(=O)O[C@H]1CC[C@@]2(C)C(CC[C@]3(C)C2CC[C@]2(C)Oc4c(C)cc(O)cc4C[C@@H]23)C1(C)C (stereo not given in full) | 21.8 | 26.4 | 19.2 | 26.7 |  | 13.6 | 19.4 | 12.7 |  |  |  |  |  |  | 
O=c1[nH]c(=O)n(C2CC(O)C(CO)O2)cc1C(OCC(F)(F)F)OCC(F)(F)F (stereo not given) | > 100 |  | > 100 | > 100 | > 100 | > 100 | > 100 | > 100 |  |  |  |  |  |  | 
OCCN(CCO)c1cccc(N(CCO)CCO)c1 | > 100 |  | > 100 | > 100 | > 100 | > 100 | > 100 | > 100 |  |  |  |  |  |  | 
CS(=O)(=O)N(CCC#N)c1ccc(/C=N/NC(=O)CC(=O)Nc2cccc(Cl)c2)cc1 | > 100 | > 100 | > 100 | > 100 |  | > 100 |  | > 100 |  |  |  |  |  |  | 
Cc1cc2c(cc1C)[n+](=O)c(C(=O)/C=C/c1ccc(Cl)cc1)c(C)n2[O-] | > 100 | > 100 | > 100 | 94.4 | 68.6 | > 100 |  | > 100 |  |  |  |  |  |  | 
O=C(O)CNS(=O)(=O)c1ccc(NC(=O)c2ccc(F)cc2)cc1 |  | > 100 | > 100 |  | > 100 | > 100 | > 100 | > 100 |  |  |  |  |  |  | 
CCOCC(=O)N[C@H]1CCc2cc(OC)c(OC)c(OC)c2-c2ccc(SC)c(=O)cc21 | > 100 | > 100 | < 0.01 | < 0.01 | 4.49 | > 100 | > 46.4 | > 100 | < 0.01 |  |  |  |  |  | 
N#CCCN(CCC#N)c1ccc(/C=C2\N=C(COc3ccc(Cl)cc3Cl)OC2=O)cc1 | > 100 |  | > 100 | > 100 | > 100 | > 100 | > 100 | > 100 |  |  |  |  |  |  | 
O=c1[nH]c(-c2ccccc2)nc2ccc(Cl)cc12 | > 100 |  | > 100 | > 100 |  | > 100 |  | > 100 |  |  |  |  |  |  | 
O=C(CC1(O)C(=O)Nc2ccc(Br)cc21)c1ccc(Cl)cc1 (stereo not given) | > 100 | > 100 | > 100 |  |  | > 100 | > 100 |  |  |  |  |  |  |  | 
NC1CCCCC1N.O=C([O-])P(=O)([O-])[O-].[Na+].[Pt+4] (stereo not given) | > 100 | > 100 | > 100 |  |  | > 100 |  |  |  | > 100 | > 100 | > 100 | > 100 |  | 
O=S(=O)([O-])[O-].[Cl-].[NH2-].[NH2-].[NH2-].[NH2-].[Ru+3].c1ccc(-c2cccnc2)cc1 | > 100 |  | > 100 |  |  | > 100 |  | > 100 |  | > 100 | > 100 |  | > 100 | > 100 | 
CC(=N\O)/C(C)=N/O.CC(=N\O)/C(C)=N/O.CC(=N\O)/C(C)=N/O.CC(=N\O)/C(C)=N/O.[Cu].[Cu] |  |  |  |  |  |  |  |  | 43.5 |  |  |  |  |  | 20.5
CCNc1c(C(=O)N(CC)CC)c(=O)[nH]c2ncccc12 | > 100 |  | > 100 | > 100 |  | > 100 |  | > 100 |  |  |  |  |  |  | 
C=C(C)C(=O)OC1CC2(C)OC2CC(OC(C)=O)/C(C)=C/C2OC(=O)C(=C)C21 (stereo not given) |  |  |  |  |  |  |  |  | 8.59 |  |  |  |  |  | 
CS(=O)(=O)OCCN1CCN(C(=O)c2cccc3c(Nc4ccc(S(N)(=O)=O)cc4)c4ccccc4nc23)CC1 | > 100 | > 100 | > 100 | > 57.6 | > 100 | > 100 | > 100 | > 100 |  |  |  |  |  |  | 
CCN(CC)c1ccc(N=C2C=CC(=O)c3ncccc32)c(C)c1 | 31.2 | 22.8 | 26.5 | 12.9 | 5.19 | 8.67 | 28.6 | 20.6 |  |  |  |  |  |  | 
CC(C)COC(=O)N1N=NC2C3OC(CC3=O)C21 (stereo not given) |  | > 100 | > 100 | > 100 | > 100 | > 100 |  | > 100 |  |  |  |  |  |  | 
Cn1ccnc1C(c1nccn1C)C(C)(C)[N+](=O)[O-] | > 100 |  |  | > 100 | > 100 |  | > 100 | > 100 |  |  |  |  |  |  | 
CN(C)c1ccc(/C=C/C(=O)C(C)(C)C)cc1Br | > 100 | > 100 | 79.5 | 40.1 | 30.3 | 92.4 |  |  |  |  |  |  |  |  | 
O=C1CCC2CCc3cccc4oc1c2c34 (stereo not given) | > 100 | > 100 | > 100 | > 100 | > 100 | > 100 |  | > 100 |  |  |  |  |  |  | 
NC1C2C(CC(=O)O)OCC=C3CN4CCC1(C(=O)C(=O)O)C4CC32 (stereo not given) |  |  |  |  |  |  |  |  | > 100 |  |  |  |  |  | 
COc1ccccc1/C=C1\CCC(CNc2ccc(Cl)cc2)C1=O (stereo not given) | 54.5 | 30.2 | 4.87 | 22.5 | 42.7 | 13.7 |  | 20.2 |  |  |  |  |  |  | 
CCON=C1C(C)(C)C(C)(C)C(C)(C)C1(C)C |  |  |  |  |  |  |  |  | > 100 |  |  |  |  |  | 
CCN(CC)CC(=O)/C=C/c1ccc(C)cc1 | > 100 | 59.6 | 49.4 | 37.9 | 92.4 | 33 |  | 55 |  |  |  |  |  |  | 
CC1=C(C)CC2(SC1)C(=O)c1ccccc1C2=O | > 100 | > 100 | > 100 | > 100 |  | > 100 | > 100 | > 100 |  |  |  |  |  |  | 
Oc1ccc2occ3c2c1CCC3 | > 100 | > 100 | > 100 | > 100 | > 100 | > 100 | > 100 | > 100 |  |  |  |  |  |  | 
C=CCC12CCC(=O)C=C1CCC1(C2)OCCO1 (stereo not given) | > 100 | > 100 | > 100 | > 100 |  | > 100 | > 100 | > 100 |  |  |  |  |  |  | 
Cc1ccc(C(=O)O/N=C2/CCCCC2CN(C)C)cc1 (stereo not given) | > 100 | > 100 | > 100 | > 100 |  | > 100 | > 100 | > 100 |  |  |  |  |  |  | 
